According to patent US11970497B2, “Tricyclic AKR1C3 dependent KARS inhibitors” (Novartis AG, priority 2019, dated 2024):

Columns and labels:
Test in all cases: Expanded lung cancer cell line proliferation assay
Format in all cases: cell-based
NCI-H2405 = settings: Homo sapiens; NCI-H2405, 72 h, average of PrestoBlue and Cell Titer Glo; AKR1C3 189.1 TPM; read-out: Absolute Qualified AC50
Text: (§1) Cellular Proliferation Assay to Assess Compound Activity in an Expanded Panel of 57 NRF2 Pathway Mutant and Wild Type Lung Cancer Cell Lines.
(§2) Both the PrestoBlue Cell Viability Reagent and Cell Titer Glo were multiplexed together as the final assay readout. PrestoBlue is a cell permeable resazurin-based solution that utilizes the reducing power of living cells to quantitatively measure their proliferation. Cell Titer Glo measures the amount of ATP present, an indicator of metabolically active cells.
(§3) Expanded Lung Cancer Cell Line Proliferation Assay Outline, Analysis and Profiling Results
(§4) Cells were seeded into 384 well assay plates (Greiner Bio-One, Catalog #781080) using the Thermo Scientific Matrix WellMate microplate dispenser and Thermo Scientific Matrix WellMate small bore disposable tubing cartridges (Catalog #201-30002) in 30 μl of growth media (RPMI-1640 supplemented with 10% fetal bovine serum and 1% penicillin/streptomycin) per well (1000 to 2000 cells/well depending on doubling time). Following cell plating, assay plates were placed into tissue culture incubator at 37° C./5% CO2 overnight. The next day one assay plate for each cell line was used for a Day 0 Cell Titer Glo and PrestoBlue readout. 3 μl of PrestoBlue Cell Viability Reagent (Thermo Scientific, Catalog #A13262) was added to each well and then assay plates were incubated at 37° C./5% CO2 for 30 minutes prior to fluorescence readout on the EnVision 2105 multimode plate reader (Perkin Elmer). Following the PrestoBlue readout 18 μl of Cell Titer Glo (Promega, Catalog #G7572) was then added to each well, allowing plates to incubate at room temperature for 10 minutes prior to luminescence readout on the EnVision. Compound was then added to the remaining assay plates (each cell line run in triplicates) using the Labcyte Inc Echo 555 acoustic liquid handler. Compounds were arrayed into a Labcyte Inc Echo qualified 384 well LDV microplate (Cat #LP-0200-GNF10). Compounds were serially diluted 1:3.16 to generate an 8 point dose response for a final top concentration of 1 μM. DMSO (0.3%) was used as the neutral control (NC) and MG132 (30 μM) was used as the active control (AC). 90 nl of compounds were added to 30 μl of cells using the Labcyte Inc Echo 555 acoustic liquid handler for a final DMSO assay concentration of 0.3%. Following compound addition, assay plates were spun down in a tabletop centrifuge at 500 rpm for 1 minute and then placed into tissue culture incubator at 37° C./5% CO2 for 72 h. Following the 72 h incubation, all assay plates were readout using PrestoBlue and Cell Titer Glo using the same conditions previously described for the Day 0 readout. The Day 0 readout (untreated cells) was used to compare to the 72 h DMSO treated samples on each assay plate as a way of tracking each cell line's fold growth. NC1 control based normalization was used for data analysis in Helios, which incorporates the DMSO neutral control (NC) and MG132 active control (AC) for generating dose response curves that are then used to calculate the Absolute Qualified AC50 calls for each compound and cell line.
(§5) NC1 normalization calculation model: NC1: xn=±(x−NC)/(AC−NC)
(§6) +/− is set by the inhibition type parameter setting where NC and AC are averages (mean or median) over the corresponding NC and AC well values. The Qualified Absolute AC50 values for Compound 36 and Compound 40 are listed in the table below and are represented as the average activity in both the PrestoBlue and Cell Titer Glo assay readouts.
(§7) Absolute Qualified AC50 Values Listed Below are a Representation of Each Compounds' Average Activity in Both the PrestoBlue and Cell Titer Glo Assay Readouts.

NCI-H1581 = settings: Homo sapiens; NCI-H1581, 72 h, average of PrestoBlue and Cell Titer Glo; AKR1C3 1.9 TPM; read-out: Absolute Qualified AC50
Text: as §1, §2, §3, §4, §5, §6, §7

RERF-LC-MS = settings: 72 h, average of PrestoBlue and Cell Titer Glo, AKR1C3 221.6 TPM, read-out: Absolute Qualified AC50
Text: as §1, §2, §3, §4, §5, §6, §7

NCI-H596 = settings: Homo sapiens; NCI-H596, 72 h, average of PrestoBlue and Cell Titer Glo; AKR1C3 265.6 TPM; read-out: Absolute Qualified AC50
Text: as §1, §2, §3, §4, §5, §6, §7

NCI-H1573 = settings: Homo sapiens; NCI-H1573, 72 h, average of PrestoBlue and Cell Titer Glo; AKR1C3 306.2 TPM; read-out: Absolute Qualified AC50
Text: as §1, §2, §3, §4, §5, §6, §7

NCI-H1568 = settings: NCI-H1568, 72 h, average of PrestoBlue and Cell Titer Glo; AKR1C3 2.8 TPM; read-out: Absolute Qualified AC50
Text: as §1, §2, §3, §4, §5, §6, §7

NCI-H23 = settings: Homo sapiens; NCI-H23, 72 h, average of PrestoBlue and Cell Titer Glo; AKR1C3 1 TPM; read-out: Absolute Qualified AC50
Text: as §1, §2, §3, §4, §5, §6, §7

NCI-H1650 = settings: Homo sapiens; NCI-H1650, 72 h, average of PrestoBlue and Cell Titer Glo; AKR1C3 1.3 TPM; read-out: Absolute Qualified AC50
Text: as §1, §2, §3, §4, §5, §6, §7

NCI-H322 = settings: NCI-H322, 72 h, average of PrestoBlue and Cell Titer Glo; AKR1C3 21 TPM; read-out: Absolute Qualified AC50
Text: as §1, §2, §3, §4, §5, §6, §7

NCI-H1339 = settings: NCI-H1339, 72 h, average of PrestoBlue and Cell Titer Glo; AKR1C3 5.2 TPM; read-out: Absolute Qualified AC50
Text: as §1, §2, §3, §4, §5, §6, §7

NCI-H838 = settings: Homo sapiens; NCI-H838, 72 h, average of PrestoBlue and Cell Titer Glo; AKR1C3 233 TPM; read-out: Absolute Qualified AC50
Text: as §1, §2, §3, §4, §5, §6, §7

SBC5 = settings: Homo sapiens, SBC-5; SBC5, 72 h, average of PrestoBlue and Cell Titer Glo; AKR1C3 5.5 TPM; read-out: Absolute Qualified AC50
Text: as §1, §2, §3, §4, §5, §6, §7

NCI-H2122 = settings: Homo sapiens; NCI-H2122, 72 h, average of PrestoBlue and Cell Titer Glo; AKR1C3 1507.5 TPM; read-out: Absolute Qualified AC50
Text: as §1, §2, §3, §4, §5, §6, §7

LCLC-103H = settings: Homo sapiens, 72 h, average of PrestoBlue and Cell Titer Glo, AKR1C3 2.6 TPM, read-out: Absolute Qualified AC50
Text: as §1, §2, §3, §4, §5, §6, §7

**Q.** How did the AC50 (NCI-H2405) turn out when CN1c2ccc(F)cc2C(=O)CC12CCN(C(=O)NCc1ccc(F)c(NCCO)c1)CC2 [Example 36, 6′-fluoro-N-(4-fluoro-3-((2-hydroxyethyl)amino)benzyl)-1′-methyl-4′-oxo-3′,4′-dihydro-1′H-spiro[piperidine-4,2′-quinoline]-1-carboxamide] was run?
**A.** Its AC50 is 994 nM.

**Q.** What about the AC50 (NCI-H1581) of the same molecule?
**A.** Its AC50 is over 1000 nM.

**Q.** What about the AC50 (RERF-LC-MS) of the same molecule?
**A.** Its AC50 is over 1000 nM.

**Q.** And the AC50 (NCI-H596)?
**A.** The AC50 was 754 nM.

**Q.** What about the AC50 (NCI-H1573) of the same molecule?
**A.** Its AC50 is 946 nM.

**Q.** What about the AC50 (NCI-H1568) of the same molecule?
**A.** The AC50 was over 1000 nM.

**Q.** What about the AC50 (NCI-H23) of the same molecule?
**A.** Its AC50 is over 1000 nM.

**Q.** What about the AC50 (NCI-H1650) of the same molecule?
**A.** The AC50 was over 1000 nM.

**Q.** And the AC50 (NCI-H322)?
**A.** The AC50 was over 1000 nM.

**Q.** And the AC50 (NCI-H1339)?
**A.** The AC50 was over 1000 nM.

**Q.** And the AC50 (NCI-H838)?
**A.** Its AC50 is over 1000 nM.

**Q.** What about the AC50 (SBC5) of the same molecule?
**A.** Its AC50 is over 1000 nM.

**Q.** What about the AC50 (NCI-H2122) of the same molecule?
**A.** Its AC50 is 258 nM.

**Q.** And the AC50 (LCLC-103H)?
**A.** Its AC50 is over 1000 nM.

**Q.** Which results are given for O=C1CC2(CCN(C(=O)NCc3ccc(F)cc3)CC2)Nc2ccc(F)cc21 [Example 40]?
**A.** AC50 (NCI-H2405): 474 nM; AC50 (NCI-H1581): > 1000 nM; AC50 (RERF-LC-MS): > 1000 nM; AC50 (NCI-H596): 334 nM; AC50 (NCI-H1573): 293 nM; AC50 (NCI-H1568): > 1000 nM; AC50 (NCI-H23): > 1000 nM; AC50 (NCI-H1650): > 1000 nM; AC50 (NCI-H322): > 1000 nM; AC50 (NCI-H1339): > 1000 nM; AC50 (NCI-H838): 641 nM; AC50 (SBC5): > 1000 nM; AC50 (NCI-H2122): 56 nM; AC50 (LCLC-103H): > 1000 nM
